Experimental data as given in ChEMBL document CHEMBL1144126, “A new insecticidal pyranocyclohexenedione from kunzea ericifolia” (1999).

Tested on: Phaedon cochleariae
Assay: Insecticidal activity against mustard beetles at 10 ug after 24 to 48 hrs
Format: functional

CC(C)C[C@@H]1C2=C(O[C@@H](C3=C(O)C(C)(C)C(=O)C(C)(C)C3=O)[C@H]1C(C)C)C(C)(C)C(=O)C(C)(C)C2=O [ERICIFOLIONE]
Activity: 97%
